In this experiment the target is human PD-L1 (Homo sapiens (Human), UniProt Q9NZQ7). The experiment can be described thus: Enzyme-Linked Immunosorbent Assay (ELISA), PD-1/PD-L1 binding. Particulars: plates coated with human PD-L1; Human PD-1 and biotin added; absorbance at 450 nm. The procedure: 96 Well plates were coated with 1 μg/mL of human PD-L1 (obtained from R&D) in PBS overnight at 4° C. The wells were then blocked with 2% BSA in PBS (W/V) with 0.05% TWEEN-20 for 1 hour at 37° C. The plates were washed 3 times with PBS/0.05% TWEEN-20 and the compounds were serial diluted (1:5) in dilution medium and added to the ELISA plates. Human PD-1 and biotin 0.3 μg/mL (ACRO Biosystems) were added and incubated for 1 hour at 37° C. then washed 3 times with PBS/0.05% TWEEN-20. A second block was performed with 2% BSA in PBS (W/V)/0.05% TWEEN-20 for 10 min at 37° C. and the plates were washed 3 times with PBS/0.05% TWEEN-20. Streptavidin-HRP was added for 1 hour at 37° C. then the plates were washed 3 times with PBS/0.05% TWEEN-20. TMB substrate was added and reacted for 20 min at 37° C. A stop solution (2 N aqueous […]) was added. The absorbance was read at 450 nm using a micro-plate spectrophotometer.
Chain of human PD-L1 (Q9NZQ7 19-239): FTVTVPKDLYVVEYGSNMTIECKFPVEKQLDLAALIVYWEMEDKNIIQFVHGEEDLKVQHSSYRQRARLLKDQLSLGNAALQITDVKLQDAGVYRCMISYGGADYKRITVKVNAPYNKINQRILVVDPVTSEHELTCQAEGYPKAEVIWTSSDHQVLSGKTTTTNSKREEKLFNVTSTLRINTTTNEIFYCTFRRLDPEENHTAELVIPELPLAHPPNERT
(An ELISA detects its analyte on a solid surface through an enzyme-linked reagent.)

SMILES strings stand for the structures.

Among the data in patent US11866429B2, “Heteroaryl-biphenyl amines for the treatment of PD-L1 diseases” (CHEMOCENTRYX, INC., priority 2019, dated 2024) are IC50 values, retold here.

In the case of `COc1nc(-c2cccc(-c3cccc(Nc4nc(C)nc5cccnc45)c3C)c2Cl)ccc1CNCC(C)(C)C(N)=O` [Compound 1.015], the IC50 was < 10 nM.

Take `Cc1cc2nccnc2c(Nc2cccc(-c3cccc(-c4ccc(CNC[C@@H]5CCC(=O)N5)c(O)n4)c3Cl)c2C)n1` [Compound 1.067]: the IC50 lay within 10 to 1000 nM.

On to `COc1nc(-c2cccc(-c3cccc(Nc4nc(C)nc5cccnc45)c3C)c2Cl)ccc1CNC1CCOCC1` [Compound 1.052], for which the IC50 was < 10 nM. With `COc1nc(-c2cccc(-c3cccc(Nc4nc(C)nc5cccnc45)c3C)c2Cl)ccc1CN[C@H]1CCC(=O)NC1` [Compound 1.023] the figure was < 10 nM; with `COc1nc(-c2cccc(-c3cccc(Nc4nc(C)nc5cccnc45)c3C)c2Cl)ccc1CNC[C@H]1CCC(=O)N1` [Compound 1.026], < 10 nM; with `COc1nc(-c2cccc(-c3cccc(Nc4nccc5nccnc45)c3C)c2Cl)ccc1CN1CC(C(=O)O)C1` [Compound 1.076], < 10 nM. With `COc1nc(-c2cccc(-c3cccc(Nc4nc(C)nc5cccnc45)c3C)c2Cl)ccc1CN1CC(C)(C(=O)O)C1` [Compound 1.065] the figure was < 10 nM. With `COc1nc(-c2cccc(-c3cccc(Nc4nccc5nccnc45)c3Cl)c2Cl)ccc1CN1CC(C)(C(=O)O)C1` [Compound 1.083] the figure was < 10 nM. Take `COc1nc(-c2cccc(-c3cccc(Nc4nc(C)nc5cccnc45)c3C)c2Cl)cnc1CNCC1(O)CC1` [Compound 1.005]: the IC50 was < 10 nM.

In the case of `COc1nc(-c2cccc(-c3cccc(Nc4nc(C)nc5cccnc45)c3C)c2Cl)ccc1CN1CC[C@@H](C(=O)O)C1` [Compound 1.044], the IC50 is < 10 nM. As for `COc1nc(-c2cccc(-c3cccc(Nc4nccc5nccnc45)c3Cl)c2Cl)cnc1CNC[C@@H]1CCC(=O)N1` [Compound 1.004], the figure is < 10 nM; as for `COc1nc(-c2cccc(-c3cccc(Nc4nc(C)nc5cccnc45)c3C)c2Cl)ccc1CN1CCC[C@@H](C(=O)O)C1` [Compound 1.022], < 10 nM; as for `COc1nc(-c2cccc(-c3cccc(Nc4nc(C)nc5cccnc45)c3Cl)c2Cl)ccc1CNC[C@@H]1CCC(=O)N1` [Compound 1.074], < 10 nM. Regarding `COc1nc(-c2cccc(-c3cccc(Nc4nc(C)nc5cccnc45)c3C)c2Cl)ccc1CNC(CO)CO` [Compound 1.056], the IC50 was < 10 nM. As for `CCc1nc(-c2cccc(-c3cccc(Nc4nccc5nccnc45)c3Cl)c2Cl)cnc1CNC[C@@H]1CCC(=O)N1` [Compound 1.080], the figure is < 10 nM; as for `COc1nc(-c2cccc(-c3cccc(Nc4nc(C)nc5cccnc45)c3C)c2Cl)ccc1CNC(C)(C)C(=O)O` [Compound 1.030], < 10 nM. With `COc1nc(-c2cccc(-c3cccc(Nc4nccc5nccnc45)c3Cl)c2Cl)ccc1CN[C@@H]1CNC(=O)C1` [Compound 1.081] the figure was < 10 nM; with `COc1nc(-c2cccc(-c3cccc(Nc4nc(C)nc5cccnc45)c3C)c2Cl)ccc1CNC[C@@H](O)CC(=O)O` [Compound 1.035], < 10 nM. With `CCc1nc(-c2cccc(-c3cccc(Nc4nc(C)nc5cccnc45)c3C)c2Cl)ccc1CN[C@@H]1CCOC[C@@H]1O` [Compound 1.045] the figure was < 10 nM. With `COc1nc(-c2cccc(-c3cccc(Nc4nc(C)nc5cccnc45)c3C)c2Cl)ccc1CNC1CNC1` [Compound 1.017], the IC50 is < 10 nM. As for `CCOc1nc(-c2cccc(-c3cccc(Nc4nc(C)nc5cccnc45)c3C)c2Cl)ccc1CNC[C@@H]1CCC(=O)N1` [Compound 1.014], the figure is < 10 nM. As for `COc1nc(-c2cccc(-c3cccc(Nc4nc(C(F)(F)F)nc5cccnc45)c3C)c2Cl)ccc1CNC[C@@H]1CCC(=O)N1` [Compound 1.070], the figure is < 10 nM. With `CNCc1ccc(-c2cccc(-c3cccc(Nc4nc(C)nc5cccnc45)c3C)c2Cl)nc1OC` [Compound 1.038] the figure was < 10 nM; with `COc1nc(-c2cccc(-c3cccc(Nc4nc(C)nc5cccnc45)c3C)c2Cl)ccc1CNC(CO)(CO)CO` [Compound 1.062], < 10 nM; with `COc1nc(-c2cccc(-c3cccc(Nc4nc(C)nc5cccnc45)c3C)c2Cl)ccc1CN1CC2(CCNC2=O)C1` [Compound 1.037], < 10 nM. With `COc1nc(-c2cccc(-c3cccc(Nc4nccc5nccnc45)c3C)c2Cl)ccc1CN1CC(O)C1` [Compound 1.077], the IC50 was < 10 nM. With `COc1nc(-c2cccc(-c3cccc(Nc4nc(C)nc5cccnc45)c3C)c2Cl)ccc1CNCC(C)(C)CO` [Compound 1.051] the figure was < 10 nM; with `COc1nc(-c2cccc(-c3cccc(Nc4nc(C)nc5cccnc45)c3C)c2Cl)ccc1CN(C)[C@@H]1CCOC[C@@H]1O` [Compound 1.042], < 10 nM; with `COc1nc(-c2cccc(-c3cccc(Nc4nc(C)nc5cccnc45)c3C)c2Cl)ccc1CNCCO` [Compound 1.057], < 10 nM. With `COc1nc(-c2cccc(-c3cccc(Nc4nc(C)nc5cccnc45)c3C)c2Cl)ccc1CNCC(N)=O` [Compound 1.041], the IC50 is < 10 nM. Take `Cc1nc(Nc2cccc(-c3cccc(-c4ccc(CNC[C@@H]5CCC(=O)N5)c(C)n4)c3Cl)c2C)c2ncccc2n1` [Compound 1.048]: the IC50 is < 10 nM. As to `COc1nc(-c2cccc(-c3cccc(Nc4nc(C)nc5cccnc45)c3C)c2Cl)ccc1CNCc1ncc[nH]1` [Compound 1.025], the IC50 was < 10 nM. As for `COc1nc(-c2cccc(-c3cccc(Nc4nc(C)nc5cccnc45)c3C)c2Cl)ccc1CN1CC2(CNC(=O)N2)C1` [Compound 1.008], the figure is < 10 nM; as for `COc1nc(-c2cccc(-c3cccc(Nc4nc(C)nc5cccnc45)c3Cl)c2F)ccc1CNC[C@@H]1CCC(=O)N1` [Compound 1.011], < 10 nM; as for `COc1nc(-c2cccc(-c3cccc(Nc4nc(C)nc5cccnc45)c3Cl)c2Cl)ccc1CN1CC(C)(C(=O)O)C1` [Compound 1.072], < 10 nM.

Consider `COc1nc(-c2cccc(-c3cccc(Nc4nccc5nccnc45)c3C)c2Cl)ccc1CN[C@@H]1CCOC[C@@H]1O` [Compound 1.075], for which the IC50 was < 10 nM.

Turning to `COc1nc(-c2cccc(-c3cccc(Nc4ncnc5cccnc45)c3Cl)c2Cl)ccc1CNC[C@@H]1CCC(=O)N1` [Compound 1.071], the IC50 is < 10 nM.

Consider `COc1nc(-c2cccc(-c3cccc(Nc4nc(C)nc5cccnc45)c3C)c2Cl)ccc1CNCC(C)(C)O` [Compound 1.061], for which the IC50 was < 10 nM.

On to `COc1nc(-c2cccc(-c3cccc(Nc4nc(C)nc5cccnc45)c3C)c2Cl)cnc1CNCCCO` [Compound 1.006], for which the IC50 was < 10 nM.

`COc1nc(-c2cccc(-c3cccc(Nc4nc(C)nc5cccnc45)c3C)c2C#N)ccc1CN[C@@H]1CCOC[C@@H]1O` [Compound 1.010]: the IC50 is < 10 nM. With `COc1nc(-c2cccc(-c3cccc(Nc4nc(C)nc5cccnc45)c3C)c2Cl)ccc1CNC(C)C` [Compound 1.029] the figure was < 10 nM.

Consider `COc1nc(-c2cccc(-c3cccc(Nc4nc(C)nc5cccnc45)c3C)c2Cl)ccc1CN1CCCC[C@H]1C(=O)O` [Compound 1.036], for which the IC50 is < 10 nM. As for `COc1nc(-c2cccc(-c3cccc(Nc4nccc5nccnc45)c3C)c2Cl)ccc1CNC[C@@H]1CCC(=O)N1` [Compound 1.078], the IC50 is < 10 nM.

Regarding `COc1nc(-c2cccc(-c3cccc(Nc4nc(C)nc5cccnc45)c3C)c2Cl)ccc1CN1CCOCC1` [Compound 1.049], the IC50 was < 10 nM. For `COc1nc(-c2cccc(-c3cccc(Nc4nc(C)nc5cccnc45)c3C)c2Cl)ccc1CN[C@H]1CCOC[C@H]1O` [Compound 1.047], the IC50 is < 10 nM.

Turning to `COc1nc(-c2cccc(-c3cccc(Nc4nc(C)nc5cccnc45)c3C)c2Cl)ccc1CN1CCC(O)CC1` [Compound 1.043], the IC50 is < 10 nM.

As to `COc1nc(-c2cccc(-c3cccc(Nc4nc(C)nc5cccnc45)c3C)c2Cl)ccc1CNC[C@H](O)CO` [Compound 1.027], the IC50 was < 10 nM. As for `COc1nc(-c2cccc(-c3cccc(Nc4nc(C)nc5cccnc45)c3C)c2Cl)ccc1CN1CC(O)C1` [Compound 1.058], the figure is < 10 nM; as for `COc1nc(-c2cccc(-c3cccc(Nc4nc(C)nc5cccnc45)c3C)c2Cl)ccc1CN1CC[C@@](C)(C(=O)O)C1` [Compound 1.033], < 10 nM.

For the molecule `COc1nc(-c2cccc(-c3cccc(Nc4nccc5nccnc45)c3Cl)c2Cl)ccc1CNC[C@@H]1CCC(=O)N1` [Compound 1.084], the IC50 was < 10 nM. `COc1nc(-c2cccc(-c3cccc(Nc4nccc5nccnc45)c3Cl)c2Cl)cnc1CN1CC(C(=O)O)C1` [Compound 1.002]: the IC50 is < 10 nM. Regarding `COc1nc(-c2cccc(-c3cccc(Nc4nc(C)nc5cccnc45)c3C)c2Cl)ccc1CN1CC[C@@H](O)C1` [Compound 1.040], the IC50 was < 10 nM. As to `COc1nc(-c2cccc(-c3cccc(Nc4nc(C)nc5cccnc45)c3C)c2F)ccc1CNC[C@@H]1CCC(=O)N1` [Compound 1.013], the IC50 was < 10 nM. As for `COc1nc(-c2cccc(-c3cccc(Nc4nccc5nccnc45)c3Cl)c2Cl)ccc1CN1CC(O)C1` [Compound 1.079], the figure is < 10 nM; as for `COc1nc(-c2cccc(-c3cccc(Nc4nc(C)nc5cccnc45)c3C)c2Cl)ccc1CNC[C@H](O)CC(=O)O` [Compound 1.016], < 10 nM; as for `COc1nc(-c2cccc(-c3cccc(Nc4nc(C)nc5cccnc45)c3C)c2Cl)ccc1CN[C@@H]1CCC(=O)NC1` [Compound 1.054], < 10 nM.

Usually IC50 stands for the midpoint of a concentration-inhibition curve. A lower IC50 goes with greater potency.
